Results reported in patent US12304894B2, “Derivatives of adamantyl oxadiazoles and pharmaceutically acceptable solvates, hydrates and salts thereof, pharmaceutical composition comprising same, synthesis method, suitable for use as effective and selective inhibitors of the reductase activity of the enzyme 11-beta dehydrogenase type 1 …” (PONTIFICIA UNIVERSIDAD CATOLICA DE CHILE, priority 2019, dated 2025).

Tests used:
Format in all cases: biochemical
[1] = molecular target: T1, recombinant 11β-HSD1 enzyme (Homo sapiens (Human), UniProt P28845); experiment: 11β-HSD1 reductase activity (HTRF Cortisol Kit); settings: 266 nM cortisone, 333 μM NADPH, read-out: 11b-HSD1 reductase (HTRF) IC50
Method: Determination of 11β-HSD1 Reductase Activity
First, stock solutions of the compounds were prepared in DMSO at a concentration of […], of which serial dilutions were made in order to determine the efficacy curve.
As for the recombinant 11β-HSD1 enzyme (Cayman Chemical, MI, USA; Item No. 10007815), it was prepared in Tris Buffer 20 mM EDTA 5 mM pH 6.0 (Tris buffer) at different dilutions.
Initially, the enzyme concentration to be used in the assays in order to evaluate the biological activity of the compounds was determined. The Cortisol Kit product (Cisbio, MA, USA; Cat no. 62CRTPEG) was used for that purpose.
The protocol consisted of preparing the reaction buffer, adding 266 nM cortisone and 333 μM NADPH in Tris buffer. Then, this reaction buffer is added to the wells of the HTRF (Homogeneous Time Resolved Fluorescence) reaction plate together with the enzyme in a 4:1 ratio respectively, and incubated for 2 hours at 37° C. In the case of the control wells, two wells with Tris buffer were added, without compounds.
After the incubation time, the reagents of the Cortisol kit were added, Cortisol d2 and Cortisol cryptate in sample ratio, Cortisol d2 and cortisol cryptate 2:1:1, in a quantity according to the size of the well as indicated by the supplier (for the negative control of the kit, the cortisol d2 is replaced by the kit's reconstitution buffer). This reaction is incubated for 1 hour at room temperature in order to later read the fluorescence at 665 and 620 nm.
Once the enzyme concentration to be used has been determined, the cortisol kit protocol is continued to determine the efficacy curve for the compounds. As previously done, a plate for HTRF was prepared adding to each well of the reaction buffer, the recombinant 11β-HSD1 enzyme and the compounds to be assayed in a 3:1:1 ratio, respectively. The plate was subsequently incubated at 37° C. for 2 hours.
After the incubation time, the reagents of the cortisol kit, cortisol d2 and cortisol cryptate, are added, and were incubated again for 1 hour at room temperature. Finally, the fluorescence of each well was determined at 665 and 620 nm.

[2] = molecular target: T1, recombinant 11β-HSD1 enzyme; experiment: 11β-HSD1 oxidase activity (HTRF Cortisol Kit); settings: for 11b-HSD1 oxidase (activ rem %) 100 nM: remaining activity at 100 nM compound; for 11b-HSD1 oxidase (activ rem %) 100 uM: remaining activity at 100 uM compound
Method: Determination of 11β-HSD1 Oxidase Activity
The Cortisol Kit (Cisbio) product was used for that purpose.
For the analysis, the compounds are reconstituted in DMSO in a stock of 10 mM concentration, from which serial dilutions were prepared for the efficiency curve.
The recombinant 11β-HSD1 enzyme dilutions were prepared in 20 mM Tris Buffer 5 mM EDTA pH 6.0 (Tris buffer).
Initially, the enzyme concentration to be used was determined. For this purpose, a plate for HRTF was prepared with Tris buffer with 100 nM cortisol and 200 μM NADP+, including in the wells of the plate for HTRF together with the enzyme in a 4:1 ratio, respectively, and incubated for 2 hours at 37° C. After this time, the reagents of the Cortisol kit, Cortisol d2 and Cortisol cryptate in sample ratio, Cortisol d2 and cortisol cryptate 2:1:1 were added, incubating this new reaction for 1 hour at room temperature. Subsequently, the fluorescence was determined at 665 and 620 nm.
An HRTF plate was again prepared, where the reaction buffer, the recombinant 11β-HSD1 enzyme and the compound were added in each well in a 3:1:1 ratio, respectively. The plate was incubated at 37° C. for 2 hours. After the incubation time, the reagents of the cortisol kit, cortisol d2 and cortisol cryptate, were added as indicated above. They were then incubated at room temperature for 1 hour to finally read the fluorescence at 665 and 620 nm.

11β-HSD2 = 11β-HSD2 oxidase activity in human hepatic microsomes (HTRF Cortisol Kit); settings: remaining activity at 100 nM compound
Method: Determination of 11β-HSD2 Oxidase Activity
The concentration of cortisone produced in the reaction, with and without the compounds, was determined using the Cortisol Kit (Cisbio) product in order to evaluate the 11β-HSD2 oxidase activity.
As in the previous assays, the compounds are reconstituted in DMSO to 10 mM stock, in order to subsequently make serial dilutions to determine the efficacy curve.
To perform the assay, the HTRF plate was prepared containing Tris buffer, 100 nM cortisol and 200 μM NAD^+. Enzyme is added to the corresponding wells in a 4:1 ratio, respectively, and incubated for 2 hours at 37° C. For the kit control, two wells are added only with Tris buffer.
After the incubation time, the reagents of the Cortisol kit, Cortisol d2 and Cortisol cryptate, in a sample ratio, Cortisol d2 and cortisol cryptate 2:1:1 are added. For the negative control, cortisol d2 was replaced in some wells by the kit's reconstitution buffer. The plate was incubated for 1 hour at room temperature to later read at 665 and 620 nm.
For this purpose, the reaction buffer was prepared and subsequently, in a plate for HTRF, the reaction buffer, the microsomes in a concentration of 5 mg/mL and the compound in a ratio of 3:1:1, respectively, were added to each well. In the case of reaction controls, the reaction buffer without cortisol and without compound is included for the negative control. For the positive control, no compound is added, and for the kit controls, only the reaction buffer is added to the negative and positive control wells.
After incubating the plate for 2 hours, the reagents of the cortisol kit, cortisol d2 and cortisol cryptate, are added to the corresponding wells as indicated above. They are then incubated at room temperature for 1 hour to finally read the 665 and 620 nm fluorescence.

T1 sequence (P28845 whole entry): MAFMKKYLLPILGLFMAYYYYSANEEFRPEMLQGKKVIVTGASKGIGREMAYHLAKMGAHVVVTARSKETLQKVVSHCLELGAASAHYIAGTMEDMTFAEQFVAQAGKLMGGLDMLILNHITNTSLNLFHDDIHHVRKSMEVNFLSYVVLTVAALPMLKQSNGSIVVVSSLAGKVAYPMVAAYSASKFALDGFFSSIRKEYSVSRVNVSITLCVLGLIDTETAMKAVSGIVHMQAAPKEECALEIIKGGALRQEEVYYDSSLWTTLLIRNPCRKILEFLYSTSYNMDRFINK

| SMILES | IC50 [1] [nM] | 11b-HSD1 oxidase (activ rem %) 100 nM [2] [%] | 11b-HSD1 oxidase (activ rem %) 100 uM [2] [%] | 11b-HSD2 oxidase (activ rem %) Microcosms 100 nM (11β-HSD2) [%] |
| --- | --- | --- | --- | --- |
| O=[N+]([O-])c1ccc(CCc2nc(C34CC5CC(CC(C5)C3)C4)no2)cc1 [BD-46, 1-(4-nitrophenyl)-2-(3-adamantyl-1,2,4-oxadiazol-5-yl)ethane] | 24 | 104.6 | 65.4 | 62.0 |
| COc1cccc(CCc2nc(C34CC5CC(CC(C5)C3)C4)no2)c1 [BD-38, 1-(3-methoxyphenyl)-2-(3-adamantyl-1,2,4-oxadiazol-5-yl)ethane] | 102 | 88.1 | 100.5 | 61.9 |
| Fc1cccc(CCc2nc(C34CC5CC(CC(C5)C3)C4)no2)c1 [BD-42, 1-(3-fluorophenyl)-2-(3-adamantyl-1,2,4-oxadiazol-5-yl)ethane] | 92 | 83.0 | 89.8 | 59.2 |
| c1ccc(CCc2nc(C34CC5CC(CC(C5)C3)C4)no2)nc1 [BD-45, 1-(2-pyridyl)-2-(3-adamantyl-1,2,4-oxadiazol-5-yl)ethane] | 1.1 | 97.4 | – | 70.2 |
| Oc1ccc(CCc2nc(C34CC5CC(CC(C5)C3)C4)no2)cc1 [BD-37, 1-(4-hydroxyphenyl)-2-(3-adamantyl-1,2,4-oxadiazol-5-yl)ethane] | 1.1 | 109.6 | 88.1 | 58.3 |
| c1cc(CCc2nc(C34CC5CC(CC(C5)C3)C4)no2)ccn1 [BD-39, 1-(4-pyridyl)-2-(3-adamantyl-1,2,4-oxadiazol-5-yl)ethane] | 97 | 89.4 | 75.3 | 59.2 |
| COc1ccc(CCc2nc(C34CC5CC(CC(C5)C3)C4)no2)cc1 [BD-32, 1-(4-methoxyphenyl)-2-(3-adamantyl-1,2,4-oxadiazol-5-yl)ethane] | 95.4 | 104.1 | 62.7 | 60.0 |
| Cc1ccc(CCc2nc(C34CC5CC(CC(C5)C3)C4)no2)cc1 [BD-36, 1-(4-methylphenyl)-2-(3-adamantyl-1,2,4-oxadiazol-5-yl)ethane] | 102 | 110.3 | 95.3 | 40.1 |
| Fc1ccc(CCc2nc(C34CC5CC(CC(C5)C3)C4)no2)cc1 [BD-34, 1-(4-fluorophenyl)-2-(3-adamantyl-1,2,4-oxadiazol-5-yl)ethane] | 104 | 109.0 | 77.2 | 68.8 |
| Brc1ccc(CCc2nc(C34CC5CC(CC(C5)C3)C4)no2)cc1 [BD-35, 1-(4-bromophenyl)-2-(3-adamantyl-1,2,4-oxadiazol-5-yl)ethane] | 9.9 | 91.3 | 104.0 | 79.5 |
| c1ccc(CCc2nc(C34CC5CC(CC(C5)C3)C4)no2)cc1 [BD-31, 1-phenyl-2-(3-adamantyl-1,2,4-oxadiazol-5-yl)ethane] | 147 | 86.1 | 86.20 | 55.4 |
| Clc1ccc(CCc2nc(C34CC5CC(CC(C5)C3)C4)no2)cc1 [BD-33, 1-(4-chlorophenyl)-2-(3-adamantyl-1,2,4-oxadiazol-5-yl)ethane] | 9.2 | 107.0 | 75.4 | 59.4 |
| CC(C)(C)c1ccc(CCc2nc(C34CC5CC(CC(C5)C3)C4)no2)cc1 [BD-41, 1-(4-tert-butylphenyl)-2-(3-adamantyl-1,2,4-oxadiazol-5-yl)ethane] | 102 | 85.9 | 86.1 | 49.7 |
